From patent US8772321B2, “Heteroannelated anthraquinone derivatives for inhibiting cancers” (National Defense Medical Center, priority 2008, dated 2014)
Read-outs that look alike come from different tables or passages of the source.

Legend:
[1] = system: HL-60(TB); assay: NCI 60-cell panel dose-response; type: cell-based, human; settings: HL-60(TB) (Leukemia)
[2] = system: HCC-2998; assay: NCI 60-cell panel dose-response; type: cell-based; settings: Homo sapiens; HCC-2998 (Colon cancer)
[3] = system: A498; assay: NCI 60-cell panel dose-response; type: cell-based; settings: Homo sapiens; A498 (Renal cancer)
[4] = system: NCI's 60 human cancer cell lines; assay: NCI 60-cell panel dose-response, whole panel; type: cell-based
[5] = system: HeLa cells; assay: DNA damage, immunoblot of γ-phosphorylation of histone H2A.X; type: cell-based, human; settings: various doses, 12 hour
Description: The anthracyclin antibiotic agent doxorubicin (DXR) is an active cytotoxic reagent with a wide range of clinical indications, including treatment of solid tumors in the ovary, breast, and gastrointestinal systems, as well as treatment of liquid tumors such as leukemia. […] Specifically, HeLa cells were treated with NSC745885 at various doses for 12 hour. The phosphorylation of γ-H2A.X was subsequently detected by the immunoblot.
(§1) Cell lysates were prepared in lysis buffer (100 mM Tris-HCl pH 8.0, 150 mM NaCl, 0.1% SDS, and 1% Triton 100) at 4° C., separated by sodium dodecyl sulfate-polyacrylamide gel electrophoresis (SDS-PAGE), and then transferred onto a polyvinylidine difluoride membrane (Millipore, USA). Proteins were detected using antibodies against alpha actinin (ACTN), proliferating cell nuclear antigen (PCNA), p53, p21, cyclin B1, and cyclin D1 (Santa Cruz Biotechnology, USA), YH2A.X (EP854(2)Y, Epitomics, USA), cleaved caspase 3, cleaved poly(ADP-ribose) polymerase (PARP) and LC3B-II (Cell signaling, USA).

[6] = system: HeLa cells; assay: Cell cycle profile by FACS; type: cell-based, human; settings: dose- and time-dependent
Excerpt: Cell cycle arrest is an important damage surveillance mechanism. […] Treating the cells with NSC745885 caused 47-58% of cells to arrest in sub-G1, which is indicative of cell death. This effect was dose- and time-dependent (FIG. 3, Panel B).

[7] = system: HeLa cells; assay: Apoptosis: cleaved PARP and caspase 3 immunoblot, DNA fragmentation gel; type: cell-based, human; settings: 16 hours
Description: It is well noted that DXR can induce cardiomyocyte death by apoptosis and necrosis. DXR is also involved in other types of cellular processes, such as autophagy and senescence/aging. To investigate induction of apoptosis caused by NSC745885, we adopted DXR as a positive control and examined the levels of cleaved PARP and caspase 3 as apoptotic indicators using immunoblot (FIG. 4A), as well as DNA fragmentation using agarose gel electrophoresis (FIG. 4B). HeLa cells were treated with either DXR or NSC745885 at various doses for 16 hours. Subsequently, the total cellular protein was extracted and immunoblotted with antibodies against the cleaved types of PARP and caspase 3. Additionally, genomic DNA was isolated and analyzed by 2% agarose gel electrophoresis followed by ethidium bromide staining. The results (FIG. 4A and FIG. 4B) are representative of three independent experiments. […] Treatment with NSC745885 decreased protein stability, an effect that appeared to be selective, and was confirmed in other immunoblot analyses (shown in FIG. 6A, lanes 1 and 6).
as §1

[8] = system: HeLa cells; assay: Autophagy: LC3B-II immunoblot; type: cell-based, human; settings: 12 hours
Description: as §1
Altered intracellular localization of LC3B (LC3B-I) and increased electrophoretic mobility of LC3B (LC3B-II) are correlated with recruitment to autophagic membranes and can be used as molecular markers for autophagic activation.
In FIG. 5A, HeLa cells were treated with the indicated concentrations of DXR, NSC745885 for 12 hours, and then cell lysates were analyzed by immunoblot using antibodies directed against LC3. The results are representative of three independent experiments.

[9] = system: HeLa cells; assay: Senescence-associated β-galactosidase staining; type: cell-based, human; settings: 2.5 μM for 24 hours, stained after 48 hours
Description: Cultured cells were washed in PBS (pH 7.4), incubated in a solution of 2% formaldehyde/0.2% glutaraldehyde, and then incubated overnight at 37° C. in freshly prepared staining solution consisting of 1 mg/mL X-gal (5-bromo-4-chloro-3-indolyl-β-D-galactoside), 5 mM K3Fe(CN)6, 5 mM K4Fe(CN)6, 150 mM NaCl and 2 mM MgCl2 in 40 mM citric acid/sodium phosphate, pH 6.0. Following this incubation, cells were washed with water and examined by light microscopy at 200× magnification.
In FIGS. 5C and 5D, HeLa cells were incubated with 2.5 μM NSC745885 for 24 hours. After 48 hours, cells were subjected to SA-β-galactosidase staining (FIG. 5C) and approximately 100 stained cells were quantified (*P<0.05; ** P<0.01; *** P<0.005). NSC745885 induced senescence at a rate of 25% (P=0.0085 compared to DMSO). (FIG. 5D) LC3B-I fragments were observed when the cells were exposed to the drug for longer period of time (FIG. 5A, panel labeled as LE). […] We also treated Hela cells with the autophagy inducer spermidine (Spd) and vehicle (DMSO), which act as the positive and the negative control, respectively.

[10] = system: p53 and p21; assay: p53 and p21 protein expression, immunoblot; type: cell-based, human; settings: HeLa cells, 12 hours, immunoblot
Description: as §1
Cell cycle regulatory protein p21 is one of p53's targets. […] In this experiment, HeLa cells were treated with the indicated concentrations of DXR or NSC745885 for 12 hours and then assessed by immunoblot (FIG. 6A) and RT-PCR (FIG. 6B).
In FIG. 6C, HeLa cells were treated with the indicated concentrations of NSC745885 for 12 hours; proteasome inhibitor MG132 (1 uM or 10 uM) was added 3 hours before harvesting. Cell protein extracts were tested with anti-p53 and anti-p21 antibodies. The results are representative of two independent experiments.

[11] = system: SV_UC—1; assay: Cell toxicity in normal epithelial cell; type: cell-based
Excerpt: To investigate the cell proliferation inhibition effect of NSC745885 in cancer cells, we compared the cancer cell proliferation inhibition effect of the NSC745885 with well-know bladder anti-cancer agent “Emodin” and clinical cancer chemical therapy agent “Doxorubicin”. The experiment bladder cancer cell lines includes T24 (FIG. 9A, 9D) and MBT2 (FIG. 9 B, 9E). We also confirm the NSC745885 cell toxicity using the non-cancer cell fibroblast 3T3 (FIG. 9C) and normal epithelial cell SV_UC—1 (FIG. 9F).

[12] = system: U1R; assay: Cell proliferation inhibition in anti-Doxorubicin cell line; type: cell-based

O=C1c2ccccc2C(=O)c2c1ccc1nsnc21 [NSC745885, anthra[2,1-c][1,2,5]thiadiazole-6,11-dione] gave a GI50 [1] of 160 nM, a TGI [1] of 400 nM and a GI50 [2] of 16400 nM. It also gave a GI50 [3] of 12400 nM, a GI50 ([4]; Homo sapiens, 60 cell, all cell lines of the panel, read-out: GI50, span over the 60-cell panel) of 160 to 17400 nM and a CC50 ([4]; Homo sapiens, 60 cell, as low as, over the panel, read-out: LC50, lowest in the 60-cell panel) of at least 990 nM. For the same compound, the GI50 ([4]; Homo sapiens, 60 cell, mean of the panel, read-out: GI50, mean over the 60-cell panel) was 2040 nM, the “TGI, lowest in the 60-cell panel” value ([4]; as low as, over the panel) was at least 400 nM and the “DNA damage (phosphorylation of γ-H2A.X, immunoblot)” value [5] was “strongly induced DNA damage”. The “cells arrested in sub-G1” value [6] was 47-58%, the “protein levels of cleaved PARP and caspase 3 at high concentration” value ([7]; 25 μM, compared to DXR) was “dramatically decreased” and the “induction of apoptosis (cleaved PARP, caspase 3, DNA fragmentation)” value ([7]; various doses) was “comparable effect”. For the same compound, the “LC3B-II fragment formation (autophagic activation)” value [8] was “LC3B-II fragment formation”, the “senescence rate (SA-β-galactosidase staining)” value [9] was 25% and the “p53 and p21 protein levels” value [10] was “decreased p21 as well as p53 in a concentration-dependent manner”. For the same compound, the “cell toxicity in normal cell” value [11] was “no cell toxicity” and the cell proliferation inhibition [12] was “distinct the cell proliferation inhibiting ability”.
